From US20110294892A1, “Use of histone deacetylase inhibitors for the care of Philadephia-negative myeloproliferative syndromes” (priority 2008, published 2011)
Like-named read-outs stand apart in the source and are kept apart here.

Columns and labels:
[1] = system: JAK2^V617F mutated human cell line SET-2; experiment: Cloning efficiency of the human cell line SET-2 in methyl-cellulose; assay type: cell-based; settings: SET-2, 336 h; for EC50: read-out: EC50 (concentration required to reduce of 50% the number of clones)
From the text: For each experimental point 2 Petri dishes were done.

rhHDAC1 = rhHDAC1 (Homo sapiens, UniProt Q13547); experiment: biochemical
rhHDAC1, sequence (Q13547 whole entry): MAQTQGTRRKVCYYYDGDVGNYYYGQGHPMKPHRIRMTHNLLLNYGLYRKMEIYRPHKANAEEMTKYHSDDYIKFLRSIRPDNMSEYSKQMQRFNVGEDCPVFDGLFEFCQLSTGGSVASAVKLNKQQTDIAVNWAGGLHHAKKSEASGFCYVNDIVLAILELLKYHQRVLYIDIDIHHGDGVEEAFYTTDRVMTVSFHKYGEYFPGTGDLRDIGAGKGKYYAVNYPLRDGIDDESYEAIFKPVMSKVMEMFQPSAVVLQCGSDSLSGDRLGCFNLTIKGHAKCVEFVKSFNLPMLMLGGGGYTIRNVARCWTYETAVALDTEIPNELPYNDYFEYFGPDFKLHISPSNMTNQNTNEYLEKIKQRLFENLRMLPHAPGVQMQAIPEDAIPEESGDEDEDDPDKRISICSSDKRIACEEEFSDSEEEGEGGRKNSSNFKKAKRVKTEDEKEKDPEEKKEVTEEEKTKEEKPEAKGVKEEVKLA
Procedure: Values for rhHDAC1 inhibition are also reported: the enzyme was obtained from BPS Biosciences (cat n. 50001) and the test was carried out using a BIOMOL kit, according to supplier instructions.

[2] = system: LPS-induced serum TNFα and IFNγ; settings: mice, oral administration of 1.0 to 10 mg/kg; cited from earlier work
[3] = system: stem cells obtained from patients suffering from PV or ET; settings: cited from earlier work
[4] = system: patients with JAK2^V617F mutation suffering from myeloproliferative syndromes (PV, ET, IM); experiment: Phase II open clinical study in JAK2V617F-positive Philadelphia-negative myeloproliferative syndromes; assay type: in vivo, human; settings: 50 mg twice per day
From the text: Clinical study of ITF2357 in patients suffering from Philadelphia-negative myeloproliferative syndromes. Design: phase II, open, non-randomized study.
Population in the study: 27 patients with the JAK2^V617F mutation suffering from myeloproliferative syndromes not adequately controlled by the standard pharmacological treatment (hydroxyurea).
Duration of the treatment: up to a maximum of 24 weeks of continual administration.
Secondary objective: to evaluate the effect of the treatment on the mutated JAK2 allele burden by quantitative PCR.

[5] = system: lipopolysaccharide (LPS)-stimulated cultured human peripheral blood mononuclear cells (PBMCs); settings: cited from earlier work

## CC(=O)SCC(=O)c1ccc(NS(=O)(=O)c2ccc(OCCCN(C)C)cc2)nc1 [KD-5170]
[1]; read-out: inhibition of clones formation at 1 μM
  inhibition at 1 µM: < 20%
rhHDAC1
  IC50: 24 nM

## CCN(CC)Cc1ccc2cc(COC(=O)Nc3ccc(C(=O)NO)cc3)ccc2c1 [ITF2357, Diethyl-[6-(4-hydroxycarbamoyl-phenylcarbamoyloxymethyl)-naphthalen-2-ylmethyl]-ammonium chloride]
[2]
  reduction of LPS-induced serum IFNγ: more than 50%
  reduction of LPS-induced serum TNFα: more than 50%
[3]
  concentrations inhibiting the clonogenic activity of stem cells: sub-micromolar
[4]; 4 to 12 weeks, patients who initially exhibited splenomegaly
  volume of the spleen: significant reduction
[4]; preliminary data, treatment 4 to 12 weeks, PV, ET or myelofibrosis patients
  complete or partial response, share of cases: approximately 60%
[1]
  EC50: 28 to 54 nM
[5]; read-out: concentration reducing by 50% the production of interferon-γ (IFNγ)
  IC50: 25 nM
[5]; read-out: concentration reducing by 50% the release of intracellular interleukin (IL)-1α
  IC50: 12 nM

## Nc1ccccc1NC(=O)c1ccc(CNc2nccc(-c3cccnc3)n2)cc1 [MGCD-0103]
[1]
  EC50: 1200 nM

## Nc1ccccc1NC(=O)c1ccc(CNC(=O)OCc2cccnc2)cc1 [SNDX-275]
[1]
  EC50: 1820 nM
